Laboratory results published in US10814010B2, “FOXC2 inhibitor and methods of use thereof” (The Board of Regents of The University of Texas System, priority 2018, dated 2020).

Experiments:
[1] = test system: DU145 cells; experiment: Co-treatment MTT assay, DU145; conditions: constant ratio
[2] = test system: MDA-MB-231 cells; experiment: MTT cell viability assay, MDA-MB-231; assay type: cell-based; conditions: Homo sapiens; MDA-MB-231, MTT, high FOXC2 expression
Procedure: It was hypothesized that the specific binding of MC-1-F2 can lead to its specific cellular activity against cancer cells with high FOXC2 expression. This hypothesis was tested by evaluating MC-1-F2's cellular activity on cell lines with different FOXC2 expression levels: MCF-7, BT549, and MDA-MB-231. […] However, further studies are still underway. The specificity in cellular activity of MC-1-F2 was further evaluated in the form of a soft-agar colony forming assay to determine if MC-1-F2 was able to inhibit in vitro tumorigenicity of cancer cells in a FOXC2 expression-dependent manner. […] Further testing is underway in various breast cancer cell lines with different FOXC2 expression levels.
(§1) Cell viability was assessed by MTT (3-(4,5-Dimethylthiazol-2-yl)-2,5-Diphenyltetrazolium Bromide) assay. 1×10^4 cells were seeded on 48-well cell culture plate, and were incubated for at least 24 hours prior to drug treatment. The MTT reagent (Fisher Scientific) was added to the culture medium 3 hours prior to the end of compound incubation. The reaction took place in the 37° C. incubator with 5% CO2 for 3 hours. Cell culture medium was then removed from the wells. Cells with the insoluble purple formazan were lysed with DMSO for 10 mins at room temperature, 0.5 ml per well. The solution was aliquot to 96-well plate for absorbance reading at 570 nm using a plate reader.

[3] = test system: DU145 cells; experiment: MTT cell viability assay, DU145; assay type: cell-based; conditions: Homo sapiens, DU-145, 24 hour treatment
Procedure: In order to determine the EC50 of MC-1-F2, an MTT assay on cell viability was performed in both DU145 and PC3.
as §1, with “assay 5,000” for “assay. 1×10^4”, “a 96-well” for “48-well”, “plate” for “plate,”, “200 μL” for “0.5 ml”, “Absorbance” for “The solution”, “read” for “aliquot to 96-well plate for absorbance reading”

[4] = molecular target: T1, endogenously expressed FOXC2 (Homo sapiens, UniProt Q99958); experiment: Drug affinity responsive target stability (DARTS) assay with MDA-MB-231 cell lysate; assay type: binding; conditions: 20 μM, Western blot
T1 construct: endogenous in cells; host or cells: MDA-MB-231
T1 sequence (Q99958 1-501): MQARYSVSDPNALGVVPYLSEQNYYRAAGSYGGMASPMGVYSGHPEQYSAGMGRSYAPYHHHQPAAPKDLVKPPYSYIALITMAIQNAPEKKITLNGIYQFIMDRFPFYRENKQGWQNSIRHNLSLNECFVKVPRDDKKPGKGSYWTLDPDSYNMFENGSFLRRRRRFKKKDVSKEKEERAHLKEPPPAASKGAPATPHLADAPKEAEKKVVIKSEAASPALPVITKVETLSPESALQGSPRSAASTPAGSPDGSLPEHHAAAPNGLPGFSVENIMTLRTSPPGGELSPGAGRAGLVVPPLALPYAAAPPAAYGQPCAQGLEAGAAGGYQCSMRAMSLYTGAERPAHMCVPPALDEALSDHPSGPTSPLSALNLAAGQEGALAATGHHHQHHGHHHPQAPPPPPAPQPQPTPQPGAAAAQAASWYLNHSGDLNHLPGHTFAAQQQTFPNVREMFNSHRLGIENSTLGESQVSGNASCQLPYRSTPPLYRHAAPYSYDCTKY
Procedure: As recombinant FOXC2 was used for the screening and the binding affinity determination, it was important to examine if MC-1-F2 binds to endogenously expressed FOXC2. To this end, a drug affinity responsive target stability assay (DARTS) was performed for MC-1-F2 and MC-C with cell lysate of MDA-MB-231 cells (FIG. 2B). In DARTS, the binding of a small molecule to its cellular target increases protease resistance of the target protein (Pai et al., 2015).
MDA-MB-231 cell lysate was harvested and incubated with 600 μL of Triton X-100 lysis buffer (50 mM Tris-HCl, 150 mM NaCl, 1 mM EDTA, 1% Triton X-100, pH 8.0) with protease inhibitor and 150 μL of phosphate inhibitor was added. Then frozen overnight followed by addition of 66.7 μL of 10×TNC buffer (1 M Tris-HCl, 5 M NaCl, 1 M CaCl2, pH 8.0) and gently mixed. The lysate was further split into 2 test tubes: Tube (1) 300 μL, Tube (2) 300 μL of cell lysate. The samples were incubated in desired concentration of compounds for 1 hour at room temperature and gently mixed. Once done the lysate of each condition was further split into 5 test tubes for each pronase condition. Pronase stock solution was thawed prior to use and 2 μL of each concentration were added to each tube and allowed to incubate for 20-30 minutes, followed by the addition of SDS loading buffer to stop pronase digestion followed by Western blot analysis.

[5] = test system: DU145 cells; experiment: Transwell invasion assay, DU145; assay type: cell-based; conditions: DU145, 24 hours, vs DMSO
Procedure: Following determination of both inhibition of EMT and CSC properties, the inhibition of the migratory and invasive capabilities of both cell lines following MC-1-F2 treatment was examined through the use of a transwell invasion assay.
Matrigel invasion chambers (Corning) were allowed to come to room temperature and allowed to rehydrate for 2 hours in a cell incubator. Cells were treated 24 hours prior to assay and starved in 2% FBS in DMEM for 2 hours prior to assay. A cell suspension containing 5×10^4 cells/mL was prepared. Chemoattractant (DMEM+10% FBS) was added to the bottom of the wells. Using forceps, the inserts were transferred inside the wells and 0.5 mL of cell suspension was immediately added. The chambers were incubated for 22 hours in a humidified tissue culture incubator. After the 22 hours, the non-invading cells were removed by scrubbing the surface of the membrane. The cells were fixated with 4% formaldehyde solution for 2 minutes at room temperature. Followed by permeabilization of the membrane with 100% MeOH for 20 minutes at room temperature. The cells were stained with 0.5% crystal violet solution and several images of the wells were then taken and total number of cells counted for analysis.

- EC50 [2]: ~20 µM
- EC50 [3]: 48.1 µM
- proteolysis of β-actin (DARTS) ([4]; pronase): did not affect the proteolysis β-actin
SMILES: N=C(N)NCCCCNc1nc(Nc2ccc(Oc3ccccc3)cc2)nc(N2CCN(c3nc(N)nc(Nc4ccc(N5CCOCC5)cc4)n3)CC2)n1 [MC-1-F2]
- combination index with docetaxel (CompuSyn) [1]: negative combination index
- combination effect with docetaxel ([1]; 24 hours): synergistic effects
- combination effect with enzalutamide (CompuSyn) ([1]; 24 hours): only additive effects
- protection of FOXC2 from pronase-mediated proteolysis (DARTS) [4]: protection of FOXC2 from pronase-mediated proteolysis
- invasiveness (transwell invasion) [5]: remarkable inhibition in invasiveness
